Reference: patent EP0745595A1, “3-(3-Aryloxyphenyl)-1-(substituted methyl)-s-triazine-2,4,6-oxo or thiotrione herbicidal agents” (American Cyanamid Company, priority 1995, dated 1996)

Legend:
Format in all cases: in vivo
[1] = test system: SETARIA VIRIDIS, (L) BEAU; assay: Preemergence herbicidal evaluation, SETVI (Foxtail, Green); conditions: rated four to five weeks after treatment
From the text: (§1) Results of herbicide evaluation are expressed on a rating scale (0-9). The scale is based upon a visual observation of plant stand, vigor, malformation, size, chlorosis and overall plant appearance as compared with a control.
(§2) The preemergence herbicidal activity of the test compounds of the present invention is exemplified by the following tests in which the seeds of a variety of monocotyledonous and dicotyledonous plants are separately mixed with potting soil and planted on top of approximately one inch of soil in separate pint cups. […] The treated cups are then placed on greenhouse benches, watered and cared for in accordance with conventional greenhouse procedures. From four to five weeks after treatment, the tests are terminated and each cup is examined and rated according to the rating system provided in Example 40.
(§3) The compounds evaluated are reported by compound number given in Example 40.

[2] = test system: CYPERUS SEROTINUS, ROTTB.; assay: Preemergence weed control under flooded paddy conditions, CYPSE (Flatsedge); conditions: preemergence, 3-4 weeks after treatment
Method in brief: (§4)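 Seeds or propagules sown in top 0.5 cm of silt loam in undrained containers, flooded 1.5 to 3 cm throughout. Compounds in aqueous/acetone 50/50 v/v pipetted into flood water at about 0.5, 0.25, 0.125 and 0.063 kg/ha. Visual 0-9 rating versus control after three to four weeks in greenhouse.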

[3] = test system: CASSIA OBTUSIFOLIA, L.; assay: Preemergence herbicidal evaluation, CASOB (Sicklepod); conditions: rated four to five weeks after treatment
Method in brief: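 Seeds of various monocot and dicot plants, including sicklepod, were each mixed with potting soil and sown on roughly one inch of soil in separate pint cups for preemergence testing. Treated cups were kept on greenhouse benches, watered and maintained conventionally. Four to five weeks after treatment, each cup was visually rated on a 0-9 scale against a control.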

[4] = test system: GLYCINE MAX(L) MERR. CV. WILLIAMS; assay: Preemergence herbicidal evaluation, GLXMAW (Soybean, Williams); conditions: rated four to five weeks after treatment
Method in brief: (§5)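 Greenhouse preemergence test; treated soil cups received compound in aqueous acetone (about 0.125 to 0.50 kg/ha) right after sowing and were assessed visually 4-5 weeks later on a 0-9 scale compared with control plants.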

[5] = test system: IPOMOEA SPP.; assay: Preemergence herbicidal evaluation, IPOSS (Morningglory spp.); conditions: rated four to five weeks after treatment
Method in brief: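 Seeds of morningglory (Ipomoea spp.) were mixed with potting soil and sown on roughly one inch of soil in pint cups for a preemergence herbicide test. The cups were put on greenhouse benches, watered, and maintained by standard greenhouse practice. Four to five weeks after treatment each cup was scored visually on a 0-9 scale against a control.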

[6] = test system: ECHINOCHLOA ORYZOIDES (ARD.)FRITSCH; assay: Preemergence weed control under flooded paddy conditions, ECHORC (Watergrass (Calif.)); conditions: preemergence, 3-4 weeks after treatment
Method in brief: as §4

[7] = test system: ORYZA SATIVA, L. TEBONNET; assay: Preemergence herbicidal evaluation, ORYSAT (Rice, Tebonnet); conditions: rated four to five weeks after treatment
From the text: as §1, §2, §3

[8] = test system: ORYZA SATIVA, L. TEBONNET; assay: Rice tolerance to post-transplant applications under flooded paddy conditions, ORYSAT (Rice, Tebonnet); conditions: post-transplant rice, 3-4 weeks after treatment
Method in brief: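 Two ten-day-old Tebonnet rice seedlings were transplanted into silt loam and kept flooded 1.5 to 3 cm deep. Three days after transplanting, the flood surface received the compound in aqueous/acetone 50/50 v/v at about 0.5, 0.25, 0.125 or 0.063 kg/ha. Injury was rated visually on a 0-9 scale versus control after 3-4 weeks.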

[9] = test system: ZEA MAYS L.; assay: Preemergence herbicidal evaluation, ZEAMX (Corn, Field); conditions: rated four to five weeks after treatment
Method in brief: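 Corn (Zea mays) seeds were mixed with potting soil and planted on about one inch of soil in pint cups, then treated preemergence. Cups were kept on greenhouse benches, watered and maintained conventionally, and after four to five weeks were visually rated on a 0-9 scale versus an untreated control.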

[10] = test system: SAGITTARIA PYGMAEA, L.; assay: Preemergence weed control under flooded paddy conditions, SAGPY (Arrowhead (Pygmaea)); conditions: preemergence, 3-4 weeks after treatment
Method in brief: as §4

[11] = test system: CHENOPODIUM ALBUM, L.; assay: Preemergence herbicidal evaluation, CHEAL (Lambsquarters, Common); conditions: rated four to five weeks after treatment
Method in brief: as §5

[12] = test system: ECHINOCHLOA CRUS-GALLI, (L) BEAU; assay: Preemergence herbicidal evaluation, ECHCG (Barnyardgrass); conditions: rated four to five weeks after treatment
Method in brief: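 Barnyardgrass seeds were mixed with potting soil and planted on about one inch of soil in pint cups for preemergence testing. Treated cups were kept on greenhouse benches, watered and maintained by standard greenhouse practice. After four to five weeks, each cup was visually rated on a 0-9 scale against an untreated control.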

## COC(=O)Cn1c(=O)[nH]c(=O)n(-c2cc(Oc3ccc(Cl)cc3Cl)ccc2[N+](=O)[O-])c1=O [Compound 14, Methyl 3-[5-(2,4-dichlorophenoxy)-2-nitrophenyl]tetrahydro-2,4,6-trioxo-s-triazine-1(2H)-acetate]
[1]; Rate 0.125 kg/ha
  SETVI herbicidal rating: 0.0
[1]; Rate 0.250 kg/ha
  SETVI herbicidal rating: 0.0
[1]; Rate 0.500 kg/ha
  SETVI herbicidal rating: 0.0
[2]; 0.063 kg/ha
  Herbicidal effect rating, CYPSE: 0.0
[2]; 0.125 kg/ha
  Herbicidal effect rating, CYPSE: 0.0
[2]; 0.250 kg/ha
  Herbicidal effect rating, CYPSE: 0.0
[2]; 0.500 kg/ha
  Herbicidal effect rating, CYPSE: 0.0
[3]; Rate 0.125 kg/ha
  CASOB herbicidal rating: 0.0
[3]; Rate 0.250 kg/ha
  CASOB herbicidal rating: 0.0
[3]; Rate 0.500 kg/ha
  CASOB herbicidal rating: 0.0
[4]; Rate 0.125 kg/ha
  GLXMAW herbicidal rating: 0.0
[4]; Rate 0.250 kg/ha
  GLXMAW herbicidal rating: 0.0
[4]; Rate 0.500 kg/ha
  GLXMAW herbicidal rating: 0.0
[5]; Rate 0.125 kg/ha
  IPOSS herbicidal rating: 0.0
[5]; Rate 0.250 kg/ha
  IPOSS herbicidal rating: 0.0
[5]; Rate 0.500 kg/ha
  IPOSS herbicidal rating: 0.0
[6]; 0.063 kg/ha
  Herbicidal effect rating, ECHORC: 0.0
[6]; 0.125 kg/ha
  Herbicidal effect rating, ECHORC: 0.0
[6]; 0.250 kg/ha
  Herbicidal effect rating, ECHORC: 0.0
[6]; 0.500 kg/ha
  Herbicidal effect rating, ECHORC: 0.0
[7]; Rate 0.125 kg/ha
  ORYSAT herbicidal rating: 1.0
[7]; Rate 0.250 kg/ha
  ORYSAT herbicidal rating: 1.0
[7]; Rate 0.500 kg/ha
  ORYSAT herbicidal rating: 1.0
[8]; 0.063 kg/ha
  Herbicidal effect rating, ORYSAT: 0.0
[8]; 0.125 kg/ha
  Herbicidal effect rating, ORYSAT: 0.0
[8]; 0.250 kg/ha
  Herbicidal effect rating, ORYSAT: 0.0
[8]; 0.500 kg/ha
  Herbicidal effect rating, ORYSAT: 0.0
[9]; Rate 0.125 kg/ha
  ZEAMX herbicidal rating: 0.0
[9]; Rate 0.250 kg/ha
  ZEAMX herbicidal rating: 0.0
[9]; Rate 0.500 kg/ha
  ZEAMX herbicidal rating: 0.0
[10]; 0.063 kg/ha
  Herbicidal effect rating, SAGPY: 0.0
[10]; 0.125 kg/ha
  Herbicidal effect rating, SAGPY: 0.0
[10]; 0.250 kg/ha
  Herbicidal effect rating, SAGPY: 0.0
[10]; 0.500 kg/ha
  Herbicidal effect rating, SAGPY: 0.0
[11]; Rate 0.125 kg/ha
  CHEAL herbicidal rating: 9.0
[11]; Rate 0.250 kg/ha
  CHEAL herbicidal rating: 9.0
[11]; Rate 0.500 kg/ha
  CHEAL herbicidal rating: 9.0
[12]; Rate 0.125 kg/ha
  ECHCG herbicidal rating: 0.0
[12]; Rate 0.250 kg/ha
  ECHCG herbicidal rating: 0.0
[12]; Rate 0.500 kg/ha
  ECHCG herbicidal rating: 0.0
